Data: US20250179047A1, “5-[7-(3,4-DIHYDRO-1H-ISOQUINOLINE-2-CARBONYL)-1,2,3,4 TETRAHYDROISOQUINOLIN-6-YL]-1H-PYRROLE-3-CARBOXAMIDE DERIVATIVES, PHARMACEUTICAL COMPOSITIONS CONTAINING THEM AND THEIR USES AS PRO-APOPTOTIC AGENTS” (LES LABORATOIRES SERVIER, priority 2022, published 2025)

How the values were obtained:
BCL2 G101V [1] = assay: TR-FRET competitive binding assay, BCL2 G101V; set-up: species or system human; conditions: ratio Ki BCL2 G101V / Ki BCL2 WT
Protocol: (§1) The relative binding potency of each compound was determined in a competitive binding assay using time resolved-fluorescence resonance energy transfer (TR-FRET). The method utilised a fluorescein labelled peptide derived from PUMA (5Flu-Ahx-[…]-NH2 wherein Ahx means 6-hexanoic acid monomer and the amino acid sequence is referred to as SEQ ID:01) which binds to a terbium labelled BCL2 or BCLXL protein. The degree of binding or corresponding compound inhibition can be quantified by the TR-FRET signal between the terbium donor and fluorescein acceptor.
(§2) The human BCL2_wild-type (also named BCL2_wt), BCL2_G101V mutant and BCLXL_wild-type were E. coli expressed as a N-terminal Halo-fusion proteins and singly labelled with Terbium on the Halo protein to afford the following amino acid sequences:
(§3) wherein the BCL2(1-207) sequence corresponds to UniProtKB® primary accession number P10415 and the BCLXL(2-196) sequence corresponds to UniProtKB® primary accession number Q07817-1.
(§4) The assay was performed in a 40 μL volume in white 384-standard well plates (Corning #3574). An 11-point serial dilution of each compound was prepared in DMSO and transferred directly to plate followed by addition of fluorescein labelled peptide and lastly protein. Final assay conditions were 0.5 nM BCL2_wt, BCL2_G101V, BCL2_D103Y, BCL2_F104I, BCL2_D111A or BCLXL_wt, 2 or 20 nM fluorescein labelled peptide, 50 mM Hepes pH 7.5, 150 mM NaCl, 0.5 mM TCEP (Tris(2-carboxyethyl)phosphine), 0.05% Tween 20, 5% DMSO. The mixture was incubated for 2 hours at 23° C.
(§5) TR-FRET measurements were performed on a Biotek Synergy Neo plate reader. TR-FRET was measured by excitation of the Terbium-donor at 340 nm and subsequent (delay time 100 μs) measurement of terbium and fluorescein emission at 495 nm and 520 nm, respectively, over a collection time of 300 μs. The TR-FRET signal was calculated as the emission-ratio at 520 nm over 495 nm.
(§6) The TR-FRET ratio readout for test compounds was normalized against 0% inhibition controls wells and 100% inhibition control wells. Test compound potency (IC50) was estimated by nonlinear regression using the sigmoidal dose-response (variable slope) using Xlfit 4 (IDBS, Guildford, Surrey, UK, model 205). Were the IC50 could not be determined the % inhibition at the highest tested concentration is given.
(§7) y=(A+((B−A)/(1+((C/x)^D))))
(§8) where y is the normalized TR-TRET ratio measurement for a given concentration of test compound, x is the concentration of test compound, A is the estimated efficacy (% inhibition) at infinite compound dilution, and B is the maximal efficacy (% inhibition). C is the IC50 value and D is the Hill slope coefficient.
(§9) The K1 values were determined from the IC50 values according to Cer et al, Nucleic Acids Res, 2009, July 1; 37 (WebServer issue): W441-W445.

BCL2 G101V [2] = target: BCL2 G101V (Homo sapiens, UniProt P10415, G101V); assay: TR-FRET competitive binding assay, BCL2 G101V; conditions: BCL2 G101V; Ki determined from IC50; read-out: TR_FRET EKI_Bcl2 G101V
Protocol: as §1, §2, §3, §4, §5, §6, §7, §8, §9

BCLXL WT = BCLXL WT (Homo sapiens (Human), UniProt Q07817); assay: TR-FRET competitive binding assay, BCLXL WT; conditions: for Ki: BCLXL WT, Ki determined from IC50, read-out: TR_FRET EKI BclxL; for TR_FRET EKI BCLxL/WT selectivty ratio: ratio Ki BCLxL / Ki BCL2 WT
Protocol: as §1, §2, §3, §4, §5, §6, §7, §8, §9

BCL2 D103Y = BCL2 D103Y (Homo sapiens, UniProt P10415, D103Y); assay: TR-FRET competitive binding assay, BCL2 D103Y; conditions: Ki determined from IC50, read-out: TR_FRET EKI_Bcl2 D103Y
Protocol: as §1, §2, §3, §4, §5, §6, §7, §8, §9

KMS-12-PE Bcl-2 WT = assay: In vitro cytotoxicity CellTiter-Glo 48 h, KMS-12-PE Bcl-2 WT; type: cell-based; conditions: Homo sapiens, KMS-12-PE, C50 = concentration needed to reach 50% of the cellular viability
Protocol: KMS-12-PE (ACC 606) were purchased from the Leibniz-Institute DSMZ (Braunschweig, Germany) and were grown at 37° C. in a humidified atmosphere with […] in media recommended by the suppliers. Lentiviral particles containing Bcl-2 wild type (also named “Bcl2 WT”) and Bcl-2 mutated on G101V (also named “Bcl2 G101V”) were cloned into pcLV-CMV-DEST-IRES-TagRFP. Lentiviral particles (1×106) were mixed with Polybrene at 8 µg/ml and transduced by spinoculation for 1 h at 32° C. and incubated overnight. After 8 days, TagRFP positive-cells were sorted by FACS. BCL2 expression was monitored by immunoblotting using anti-Flag and anti-BCL2 antibodies.
Cellular viability was monitored with the cell viability assay (CellTiter-Glo®) on KMS-12-PE WT and G101V cell lines. The CellTiter-Glo® (CTG) Luminescent Cell Viability Assay (from Promega) is a homogeneous method to determine the number of viable cells in culture based on quantitation of the ATP present, which signals the presence of metabolically active cells.
Dose response of compounds are performed with 10 mM stock solutions (DMSO), 11-points curve, in a 384-well compound plate. The assay plate is prepared by stamping 40 nL from compound dilution plate of all different concentrations (e.g. 10 mM to have final […] assay test) into a cell culture microplate, using Echo acoustic liquid handling (Labcyte, Beckman). 40 μl of cell solution is added and cells are incubated with compounds for 48 h at 37° C., 5% CO2. CTG was added to the cells (according to the manufacturer instructions) and luminescence intensity was recorded using the Pherastar plate reader (BMG).
This assay provides in vitro cellular potency of the tested Bcl-2 inhibitors, measuring the C50, defined as the concentration needed to reach 50% of the cellular viability.

BCL2 WT = BCL2 WT (Homo sapiens (Human), UniProt P10415); assay: TR-FRET competitive binding assay, BCL2 WT; conditions: Ki determined from IC50, read-out: TR_FRET EKI_Bcl2 WT
Protocol: as §1, §2, §3, §4, §5, §6, §7, §8, §9

BCLXL WT, sequence (Q07817 other isoform, or with tags, fused parts or gaps): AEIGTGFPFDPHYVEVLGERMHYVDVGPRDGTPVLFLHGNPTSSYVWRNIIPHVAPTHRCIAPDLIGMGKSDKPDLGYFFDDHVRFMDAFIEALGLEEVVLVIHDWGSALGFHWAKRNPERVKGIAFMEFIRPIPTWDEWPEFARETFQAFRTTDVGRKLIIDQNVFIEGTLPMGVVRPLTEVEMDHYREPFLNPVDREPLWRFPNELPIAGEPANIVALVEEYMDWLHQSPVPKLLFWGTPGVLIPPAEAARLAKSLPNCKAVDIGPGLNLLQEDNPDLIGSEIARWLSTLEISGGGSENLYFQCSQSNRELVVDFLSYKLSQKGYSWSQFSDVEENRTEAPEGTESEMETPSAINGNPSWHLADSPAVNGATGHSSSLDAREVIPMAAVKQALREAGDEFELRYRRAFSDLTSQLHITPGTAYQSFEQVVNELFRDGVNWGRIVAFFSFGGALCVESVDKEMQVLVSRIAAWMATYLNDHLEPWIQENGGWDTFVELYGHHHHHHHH

Compound	TR_FRET EKI G101V/WT selectivty ratio (BCL2 G101V [1])	Ki (BCL2 G101V [2])	Ki (BCLXL WT)	TR_FRET EKI BCLxL/WT selectivty ratio (BCLXL WT)	Ki (BCL2 D103Y)	Ki (BCL2 WT)	IC50 (KMS-12-PE Bcl-2 WT)
COc1ncc(N(C(=O)c2cc(-c3cc4c(cc3C(=O)N3Cc5ccccc5C[C@H]3C)CN(C(=O)Cc3ccc(OCCN5CCOCC5)cc3)CC4)n(C)c2C)c2ccccc2)cc1F [Example 183, N-(5-fluoro-6-methoxy-3-pyridyl)-1,2-dimethyl-5-[7-[(3R)-3-methyl-3,4-dihydro-1H-isoquinoline-2-carbonyl]-2-[2-[4-(2-morpholinoethoxy)phenyl]acetyl]-3,4-dihydro-1H-isoquinolin-6-yl]-N-phenyl-pyrrole-3-carboxamide]	43.8	5.6 nM	15.1 nM	117.3	0.35 nM	0.13 nM	0.0143 µM
Cc1c(C(=O)N(c2ccccc2)c2cnn(C)c2)cc(-c2cc3c(cc2C(=O)N2Cc4ccccc4C[C@H]2C)CN(C(=O)Cc2ccc(OCCN4CCOCC4)cc2)CC3)n1C [Example 184, 1,2-dimethyl-5-[7-[(3R)-3-methyl-3,4-dihydro-1H-isoquinoline-2-carbonyl]-2-[2-[4-(2-morpholinoethoxy)phenyl]acetyl]-3,4-dihydro-1H-isoquinolin-6-yl]-N-(1-methylpyrazol-4-yl)-N-phenyl-pyrrole-3-carboxamide]	66.2	2 nM	12.3 nM	411.3	0.09 nM	0.03 nM	0.0061 µM
Cc1c(N(C(=O)c2cc(-c3cc4c(cc3C(=O)N3Cc5ccccc5C[C@H]3C)CN(C(=O)Cc3ccc(OCCN5CCOCC5)cc3)CC4)n(C)c2C)c2ccc(F)cc2)cc(C#N)n1C [Example 185, N-(5-cyano-1,2-dimethyl-pyrrol-3-yl)-N-(4-fluorophenyl)-1,2-dimethyl-5-[7-[(3R)-3-methyl-3,4-dihydro-1H-isoquinoline-2-carbonyl]-2-[2-[4-(2-morpholinoethoxy)phenyl]acetyl]-3,4-dihydro-1H-isoquinolin-6-yl]pyrrole-3-carboxamide]	23.4	1.5 nM	5.9 nM	92.8	0.13 nM	0.06 nM	0.0051 µM

Continued by falling Ki (BCL2 G101V [2]), values first:

TR_FRET EKI G101V/WT selectivty ratio (BCL2 G101V [1])	Ki (BCL2 G101V [2])	Ki (BCLXL WT)	TR_FRET EKI BCLxL/WT selectivty ratio (BCLXL WT)	Ki (BCL2 D103Y)	Ki (BCL2 WT)	Compound	IC50 (KMS-12-PE Bcl-2 WT)
92.0	17.4 nM	33.4 nM	176.8	1.99 nM	0.19 nM	COCC(=O)N1CCc2cc(-c3cc(C(=O)N(c4ccccc4)c4cc(C#N)n(C)c4C)c(C)n3C)c(C(=O)N3Cc4ccccc4C[C@H]3CN3CCCCC3)cc2C1 [Example 189, N-(5-cyano-1,2-dimethyl-pyrrol-3-yl)-5-[2-(2-methoxyacetyl)-7-[(3S)-3-(1-piperidylmethyl)-3,4-dihydro-1H-isoquinoline-2-carbonyl]-3,4-dihydro-1H-isoquinolin-6-yl]-1,2-dimethyl-N-phenyl-pyrrole-3-carboxamide]	0.0299 µM
73.4	3.6 nM	16.8 nM	342.7	0.12 nM	0.05 nM	Cc1c(C(=O)N(c2ccccc2)c2cnn(C(F)F)c2)cc(-c2cc3c(cc2C(=O)N2Cc4ccccc4C[C@H]2C)CN(C(=O)Cc2ccc(OCCN4CCOCC4)cc2)CC3)n1C [Example 190, N-[1-(difluoromethyl)pyrazol-4-yl]-1,2-dimethyl-5-[7-[(3R)-3-methyl-3,4-dihydro-1H-isoquinoline-2-carbonyl]-2-[2-[4-(2-morpholinoethoxy)phenyl]acetyl]-3,4-dihydro-1H-isoquinolin-6-yl]-N-phenyl-pyrrole-3-carboxamide]	0.0077 µM
78.9	2.7 nM	17.3 nM	507.9	0.08 nM	0.03 nM	Cc1nn(C)cc1N(C(=O)c1cc(-c2cc3c(cc2C(=O)N2Cc4ccccc4C[C@H]2C)CN(C(=O)Cc2ccc(OCCN4CCOCC4)cc2F)CC3)n(C)c1C)c1ccccc1 [Example 187, N-(1,3-dimethylpyrazol-4-yl)-5-[2-[2-[2-fluoro-4-(2-morpholinoethoxy)phenyl]acetyl]-7-[(3R)-3-methyl-3,4-dihydro-1H-isoquinoline-2-carbonyl]-3,4-dihydro-1H-isoquinolin-6-yl]-1,2-dimethyl-N-phenyl-pyrrole-3-carboxamide]	0.0069 µM
65.3	2.4 nM	9.5 nM	264.0	0.07 nM	0.04 nM	COc1ccc(N(C(=O)c2cc(-c3cc4c(cc3C(=O)N3Cc5ccccc5C[C@H]3C)CN(C(=O)Cc3ccc(OCCN5CCOCC5)cc3)CC4)n(C)c2C)c2ccccc2)cn1 [Example 191, N-(6-methoxy-3-pyridyl)-1,2-dimethyl-5-[7-[(3R)-3-methyl-3,4-dihydro-1H-isoquinoline-2-carbonyl]-2-[2-[4-(2-morpholinoethoxy)phenyl]acetyl]-3,4-dihydro-1H-isoquinolin-6-yl]-N-phenyl-pyrrole-3-carboxamide]	0.0131 µM
71.6	2.2 nM	23.9 nM	769.6	0.09 nM	0.03 nM	Cc1nn(C)cc1N(C(=O)c1cc(-c2cc3c(cc2C(=O)N2Cc4ccccc4C[C@H]2C)CN(C(=O)Cc2ccc(OCCN4CCOCC4)cc2)CC3)n(C)c1C)c1ccccc1 [Example 188, N-(1,3-dimethylpyrazol-4-yl)-1,2-dimethyl-5-[7-[(3R)-3-methyl-3,4-dihydro-1H-isoquinoline-2-carbonyl]-2-[2-[4-(2-morpholinoethoxy)phenyl]acetyl]-3,4-dihydro-1H-isoquinolin-6-yl]-N-phenyl-pyrrole-3-carboxamide]	0.0113 µM
